Results on 1 compound are retold here after patent publication US20240342138A1, “MICROTUBULE TARGETING AGENTS” (BPGbio, Inc., priority 2023, published 2024).

pIC50: −log10 of the molar value.

One data set has as its target P-gp (Homo sapiens, UniProt P08183). In words: P-gp substrate status. It is filed as in vitro ADME.
For the next data set, the system named is U87 cells. The data set is described as follows: In vitro potency in glioblastoma cells, Realtime-Glo assay. It is filed as cell-based. Particulars: Homo sapiens, U-87 MG, FIG. 14A, read-out: In vitro potency (anti-cancer activity). The source says: (§1) FIG. 14A-14E show the efficacy of Compound 1 in glioblastoma cell lines in vitro and in a glioblastoma rat model (C6). A) In vitro potency of Compound 1 in four different glioblastoma cell lines as evaluated by Realtime-Glo™ assay (C6, and U87 cells) or ATPlite 1Step™ Perkin Elmer (performed by NTRC Oncolines; T98G and A-172 cells). B) Study design overview: C6 rat glioma cells (3×10^5) were implanted into the right entorhinal cortex/subiculum region of male Sprague Dawley rats and tumor burden was assessed 14 days post inoculation using MRI and animals randomized into […] (4) groups (vehicle control, 5 mg/kg, 10 mg/kg, and 20 mg/kg Compound 1) with 4 animals per group. […] C) Body weights were measured every two days. […]
(§2) Glioblastoma (GBM) is the most common and highly malignant form of primary brain tumor with a poor prognosis despite advances in treatments. […] Accordingly, the in vitro potency of Compound 1 was examined in four different glioblastoma cell lines as evaluated by Realtime-Glo™ assay (C6, and U87 cells) or ATPlite 1Step™ Perkin Elmer (performed by NTRC Oncolines; T98G and A-172 cells). […] Therefore, the in vivo tumor activity of Compound 1 was next assessed in Sprague Dawley rats implanted with C6 rat glioma cells into the right entorhinal cortex/subiculum region (AP: −7 mm; ML: 4.5 mm, DV: 5 mm). […]

Another data set deals with C6 cells. The data set is described as above. Type of data set: cell-based. Particulars: Rattus norvegicus, FIG. 14A, read-out: In vitro potency (anti-cancer activity).
From the text: as §1, §2

Sequence of P-gp (P08183 whole entry): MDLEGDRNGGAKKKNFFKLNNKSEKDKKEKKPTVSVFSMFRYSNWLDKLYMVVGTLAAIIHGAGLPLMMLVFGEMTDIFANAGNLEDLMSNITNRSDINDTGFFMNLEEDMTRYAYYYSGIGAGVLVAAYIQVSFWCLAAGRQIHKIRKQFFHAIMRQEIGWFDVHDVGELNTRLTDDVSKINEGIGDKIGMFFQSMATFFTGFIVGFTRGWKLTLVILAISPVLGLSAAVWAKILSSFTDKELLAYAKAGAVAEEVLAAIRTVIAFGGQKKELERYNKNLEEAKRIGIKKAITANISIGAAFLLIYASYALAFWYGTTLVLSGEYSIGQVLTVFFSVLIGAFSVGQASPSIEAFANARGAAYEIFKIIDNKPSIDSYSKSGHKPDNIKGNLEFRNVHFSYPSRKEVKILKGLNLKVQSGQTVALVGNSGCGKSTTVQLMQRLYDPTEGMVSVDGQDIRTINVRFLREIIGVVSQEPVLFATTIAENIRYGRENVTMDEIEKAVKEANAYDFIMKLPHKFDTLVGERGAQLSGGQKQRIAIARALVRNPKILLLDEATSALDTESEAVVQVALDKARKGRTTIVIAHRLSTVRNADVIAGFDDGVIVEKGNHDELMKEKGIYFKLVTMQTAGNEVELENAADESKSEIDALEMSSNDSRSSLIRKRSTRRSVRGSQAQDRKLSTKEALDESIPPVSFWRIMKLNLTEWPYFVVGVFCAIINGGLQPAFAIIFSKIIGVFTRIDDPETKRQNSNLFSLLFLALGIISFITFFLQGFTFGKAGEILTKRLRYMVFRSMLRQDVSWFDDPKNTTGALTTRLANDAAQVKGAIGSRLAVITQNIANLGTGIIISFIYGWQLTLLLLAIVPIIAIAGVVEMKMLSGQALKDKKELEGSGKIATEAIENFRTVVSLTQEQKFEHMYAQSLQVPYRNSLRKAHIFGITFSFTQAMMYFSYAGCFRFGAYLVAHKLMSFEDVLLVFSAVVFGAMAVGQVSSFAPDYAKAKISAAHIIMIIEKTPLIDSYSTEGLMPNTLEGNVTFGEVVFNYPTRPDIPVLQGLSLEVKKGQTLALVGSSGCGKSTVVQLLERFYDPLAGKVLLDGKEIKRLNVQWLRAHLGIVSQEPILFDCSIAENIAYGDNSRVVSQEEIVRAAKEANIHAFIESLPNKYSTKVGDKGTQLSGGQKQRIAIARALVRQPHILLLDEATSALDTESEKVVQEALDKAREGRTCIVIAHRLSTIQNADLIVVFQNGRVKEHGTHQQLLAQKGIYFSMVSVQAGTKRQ

Take `COc1ccccc1-c1nc(CNC(=O)c2ccccc2OC(F)F)n[nH]1` [Compound 1, 2-(difluoromethoxy)-N-[[5-(2-methoxyphenyl)-1H-1,2,4-triazol-3-yl]methyl]benzamide]: the P-gp substrate entry on P-gp was “not a substrate for P-gp”. For the same compound, the pIC50 with U87 cells was 7.05; with C6 cells, 7.38.
